From US20130065883A1 (Centro Nacional de Investigaceiones Oncologicas (CNIO), priority 2010, published 2013) come the findings set out here.

Structures are written as SMILES.

One experiment has as its target T1, PIM-2 (Homo sapiens, UniProt Q9P1W9).
T1 construct: histidine tag (N); made in house
Briefly: PIM-2 biochemical assay (ADP Hunter).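 Also: recombinant N-terminally His-tagged human enzyme, kinase activity quantified by detection of ADP formed as the direct reaction product.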 The following applies: semi-quantitative class; read-out: PIM2 IC50.

The target in another experiment is T2, PIM-1 (Homo sapiens, UniProt P11309).
T2 construct: histidine tag (C); made in house
Nature of the experiment: PIM-1 biochemical assay (ADP Hunter).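 Also: recombinant human PIM-1 carrying a C-terminal His tag, kinase activity quantified via ADP formed as the direct enzymatic product.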 The following applies: semi-quantitative class; read-out: PIM1 IC50.

T1 sequence (Q9P1W9 whole entry): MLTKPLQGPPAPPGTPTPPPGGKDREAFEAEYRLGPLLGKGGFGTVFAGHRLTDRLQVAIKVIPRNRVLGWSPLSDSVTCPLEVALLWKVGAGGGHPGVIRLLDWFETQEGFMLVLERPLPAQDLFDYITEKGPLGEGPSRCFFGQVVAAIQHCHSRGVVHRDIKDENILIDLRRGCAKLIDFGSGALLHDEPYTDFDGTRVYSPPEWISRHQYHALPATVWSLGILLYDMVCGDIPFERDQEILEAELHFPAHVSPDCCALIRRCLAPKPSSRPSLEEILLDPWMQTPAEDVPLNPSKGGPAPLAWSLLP
T2 sequence (P11309 whole entry): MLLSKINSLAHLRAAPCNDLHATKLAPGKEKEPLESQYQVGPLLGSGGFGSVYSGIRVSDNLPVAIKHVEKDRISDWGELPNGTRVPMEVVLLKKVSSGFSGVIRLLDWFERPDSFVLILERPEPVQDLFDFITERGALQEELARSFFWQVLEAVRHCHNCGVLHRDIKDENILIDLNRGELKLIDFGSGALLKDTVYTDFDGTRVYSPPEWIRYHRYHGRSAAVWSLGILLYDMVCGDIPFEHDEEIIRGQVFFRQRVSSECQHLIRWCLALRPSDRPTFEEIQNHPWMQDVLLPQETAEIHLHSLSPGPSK

Regarding `COc1ccc(-n2nnc3ccc(N4CCCCCC4)nc32)cc1` [2-01], the IC50 on PIM-2 is greater than 1 µM. On the same count and under the same terms, as for `COc1ccc(-n2nnc3ccc(NCc4ccc(F)cc4)nc32)cc1` [2-02, (4-Fluoro-benzyl)-[3-(4-methoxy-phenyl)-3H-[1,2,3]triazolo[4,5-b]pyridin-5-yl]amine], the figure is greater than 1 µM. For `COc1ccc(-n2nnc3ccc(NCc4cccc(Cl)c4)nc32)cc1` [2-03], the half-maximal inhibitory concentration (IC50) at PIM-1 and on PIM-2 was greater than 1 µM in each case. In the case of `CCOC(=O)c1cc2nnn(-c3ccc(OC)cc3)c2nc1NCc1ccc(F)cc1` [2-06], the concentration for half-maximal inhibition (IC50) on PIM-1 and on PIM-2 was greater than 1 µM each time. In the case of `CCOC(=O)c1cc2nnn(-c3ccc(OC)cc3)c2nc1N1CCCCCC1` [2-07], the IC50 at PIM-1 and at PIM-2 was greater than 1 µM in each case. `FC(F)(F)Oc1cccc(-n2nnc3ccc(NCCc4cccnc4)nc32)c1` [2-08]: the IC50 on PIM-2 was greater than 1 µM. Consider `CCCNc1ccc2nnn(-c3cccc(OC(F)(F)F)c3)c2n1` [2-09], for which the IC50 at PIM-2 is greater than 1 µM. For `FC(F)(F)Oc1cccc(-n2nnc3ccc(NC4CCOCC4)nc32)c1` [2-10], the IC50 on PIM-2 was greater than 1 µM. The same measure, in the same setting: as for `c1ccc(CCNc2ccc3nnn(-c4ccccc4)c3n2)cc1` [2-11], the figure is greater than 1 µM; as for `Fc1ccc(-n2nnc3ccc(N4CCCCCC4)nc32)cc1` [2-12], greater than 1 µM. Still for that read-out and setting: as for `Fc1ccc(-n2nnc3ccc(N4CCOCC4)nc32)cc1` [2-13], the figure is greater than 1 µM. `CCOC(=O)c1cc2nnn(-c3ccc(OC)cc3)c2nc1NCC1CCN(C)CC1` [2-14, 3-(4-Methoxy-phenyl)-5-[(1-methyl-piperidin-4-ylmethyl)-amino]-3H-[1,2,3]triazolo[4,5-b]pyridine-6-carboxylic acid ethyl ester]: the IC50 at PIM-1 and at PIM-2 was greater than 1 µM each time. Take `CCOC(=O)c1cc2nnn(-c3ccc(O)cc3)c2nc1NCc1ccc(F)cc1` [2-15]: the half-inhibitory concentration (IC50) at PIM-1 and on PIM-2 was greater than 1 µM throughout. In the case of `CCOC(=O)c1cc2nnn(-c3ccc(O)cc3)c2nc1N1CCCCCC1` [2-16], the IC50 on PIM-1 and on PIM-2 was greater than 1 µM in each case. As for `COc1cccc(CCNc2ccc3nnn(-c4ccc(F)cc4)c3n2)c1OC` [2-17], the half-maximal inhibitory concentration (IC50) on PIM-1 and on PIM-2 was greater than 1 µM throughout. `NS(=O)(=O)c1ccc(CCNc2ccc3nnn(-c4ccccc4)c3n2)cc1` [2-18]: on PIM-2, the IC50 is greater than 1 µM. Regarding `FC(F)(F)Oc1cccc(-n2nnc3ccc(NCC4CC4)nc32)c1` [2-20], the results for the IC50 on PIM-1 and on PIM-2 were 0.1 to 1 µM and greater than 1 µM, respectively.

Take `CN(C)C(=O)CN1CCC(CNc2ccc3nnn(-c4cccc(OC(F)(F)F)c4)c3n2)CC1` [2-22]: the IC50 at PIM-2 is greater than 1 µM. In the case of `CC(=O)Nc1ccc(-n2nnc3ccc(NCC4CCN(C)CC4)nc32)cc1` [2-23], the IC50 on PIM-1 and on PIM-2 was greater than 1 µM each time.

For the compound `CCCNc1ccc2nnn(-c3ccc(O)cc3)c2n1` [2-24], the IC50 at PIM-2 is greater than 1 µM. Turning to `O=C(CN1CCC(CNc2ccc3nnn(-c4cccc(OC(F)(F)F)c4)c3n2)CC1)C1CC1` [2-26], on PIM-2, the IC50 is greater than 1 µM. Take `FC(F)(F)Oc1cccc(-n2nnc3ccc(NCC4CCN(C5CC5)CC4)nc32)c1` [2-27]: the half-inhibitory concentration (IC50) at PIM-1 was 0.1 to 1 µM; at PIM-2, greater than 1 µM. The corresponding values for `O=CNCCN1CCN(c2ccc3nnn(-c4cccc(OC(F)(F)F)c4)c3n2)CC1` [2-29] are 0.1 to 1 µM and greater than 1 µM. Consider `CC(C)(C)OC(=O)N1CCC(Nc2ccc3nnn(-c4cccc(OC(F)(F)F)c4)c3n2)CC1` [2-33], for which the half-inhibitory concentration (IC50) on PIM-1 and on PIM-2 was greater than 1 µM throughout. Consider `CC(C)(C)OC(=O)N1CCN(CCNc2ccc3nnn(-c4cccc(OC(F)(F)F)c4)c3n2)CC1` [2-34], for which the half-maximal inhibitory concentration (IC50) on PIM-1 and at PIM-2 was greater than 1 µM each time. Regarding `O=C1CN(CCNc2ccc3nnn(-c4cccc(OC(F)(F)F)c4)c3n2)CCN1` [2-35], the IC50 at PIM-1 is 0.1 to 1 µM; at PIM-2, greater than 1 µM. The matching figures for `OCCNc1ccc2nnn(-c3cccc(OC(F)(F)F)c3)c2n1` [2-37]: 0.1 to 1 µM and greater than 1 µM.
